Results taken from publication PMC9763333, “In vitro characterization of immune modulating drug-eluting immunobeads towards transarterial embolization in cancer” (Scientific Reports, 2022).
Several values for one entry are separate records, joined by “and”; a condition that tells them apart may be missing. Equal entries are not always repeated. Entries after “also recorded” stand apart in the source; their conditions may differ. Where two headings read alike, the source gives them in different places. Each block holds one molecule with its values, some of them ahead of it.

Legend:
Type in all cases: physicochemical
[1] = Drug solubilization by salt formation in acid; settings: HPLC, two peaks observed
Experimental: The base form of each drug was suspended in deionized water and titrated with 0.1 N hydrochloric acid (Fisher Scientific, Hampton, NH) while stirring until all the base was solubilized and the volume adjusted to a final concentration of 2.5 mg/mL. The resulting solution was frozen, then lyophilized to yield solid drug-hydrochloride salt or used in its solubilized form for loading into DC Bead LUMI. […] Doxorubicin.HCl was readily solubilized and used without modification. […] A ZORBAX Eclipse Plus C8 reversed-phase column (Agilent) and UV detector at wavelength of 230 nm were used for GS-9620 analysis. The decomposition product of GS-9620 was analyzed with reversed phase high-performance liquid chromatography (Rp-HPLC) and LC/MS.

[2] = pKa measurement by triple titration in methanol–water co-solvent with Yasuda-Shedlovsky extrapolation; settings: for pKa: methanol–water co-solvent, aqueous value by Yasuda-Shedlovsky extrapolation; for psKa1 / psKa2: methanol–water
Experimental: pKa measurements were performed by Pion Inc, UK Ltd using known methods as previously reported[47]–[50] or calculated by using software MoKa (Molecular Discovery, Borehamwood, Hertfordshire, UK, https://www.moldiscovery.com/software/moka/#references) or directly obtained from the literature. For GARD and DSR 6434, a triple titration was carried out under methanol–water co-solvent conditions from pH 2.0–12.0 at concentrations of 2.3–1.3 mM (the methanol mixing ratio varied from 49.0 to 28.9% w/w) and 1.5–0.9 mM (the methanol mixing ratio varied from 49.6 to 29.1% w/w), respectively.

[3] = Drug release from DC Bead LUMI in saline; settings: for release in saline from DC Bead LUMI after multiple washes in deionized water: single replicates
Experimental: […] Briefly, drug-loaded DC Bead LUMI or LC Bead (62.5 µL) were placed in vessels with 50 mL of saline ([…], pH 7.4) and were agitated with upright rocking motion at a set maximum rocking speed of 10 (70 rpm) for 144 h at 37 °C using Ward's® Rotating Mixer. At scheduled time intervals identical to the loading time points, 1 mL of release media was withdrawn and used for drug quantification. To maintain 50 mL total elution volume, 1 mL of fresh saline pre heated to 37 °C was replaced at each timepoint. […] 2.4. The cumulative amount of drug released at each time point was calculated by multiplying the concentration of each sample aliquot by the total volume (50 mL) of release media and adding the sum of the amount of drug removed for sampling at prior time points. […] The 50 mL volume was chosen to ensure infinite sink conditions where the maximum possible concentration of eluted drug would be at least 10 times more dilute than the maximum solubility. This ensures the rate of release is not affected by solution concentration but is only a function of interactions of the bead, drug, and saline.

[4] = Drug loading into DC Bead LUMI
Experimental: DC Bead LUMI was analyzed for its elemental composition by MEDAC Inc. […] Drug loading was performed in triplicate as previously reported[45] with slight modifications. […] Washing of beads is often a critical step in drug release studies as any drug left unbound to the beads affects the release profile and exaggerates the early burst release. […] However, washing was discontinued for TLR drugs as drug was continually observed even after multiple washes. […] The amount of drug loaded at the specified time points was calculated by subtracting the amount of drug remaining from the initial amount of drug in the loading solution and the cumulative amount of drug withdrawn for sampling. The maximum drug loaded in the beads was calculated once no further change in the concentration in the loading solution could be measured and before washing the beads. The relative percent drug loaded was defined as the maximum amount of drug loaded as a percent of the amount of SO3^- ions available in the beads on a molar basis using the following formula and the results are presented as the mean ± SD.

[5] = Washing of drug-loaded beads with deionized water and microscopic appearance
Experimental: Drug loading was performed in triplicate as previously reported[45] with slight modifications. […] Washing of beads is often a critical step in drug release studies as any drug left unbound to the beads affects the release profile and exaggerates the early burst release. […] However, washing was discontinued for TLR drugs as drug was continually observed even after multiple washes. […] The amount of drug loaded at the specified time points was calculated by subtracting the amount of drug remaining from the initial amount of drug in the loading solution and the cumulative amount of drug withdrawn for sampling. The maximum drug loaded in the beads was calculated once no further change in the concentration in the loading solution could be measured and before washing the beads. The relative percent drug loaded was defined as the maximum amount of drug loaded as a percent of the amount of SO3^- ions available in the beads on a molar basis using the following formula and the results are presented as the mean ± SD.

Compound: CCCCOc1nc(N)c2c(n1)N(Cc1cccc(CN3CCCC3)c1)CC(=O)N2 [GS-9620]
stability in the solubilizing conditions [1]: partially decomposed; also recorded: not stable

pKa ([2]; read-out: pKa (first, measured)): 7.02
pKa ([2]; read-out: pKa (second, measured)): 8.02
psKa1 ([2]; dielectric constant 56.8): 6.81
psKa2 ([2]; dielectric constant 56.8): 7.83
psKa1 ([2]; dielectric constant 61.6): 6.89
psKa2 ([2]; dielectric constant 61.6): 7.88
psKa1 ([2]; dielectric constant 66): 6.92
psKa2 ([2]; dielectric constant 66): 7.94
release behaviour in saline ([3]; DC Bead LUMI): rapid release
Relative percent drug loaded in DC Bead LUMI over time ([4]; 5 min, single replicates): 55.2766% and 60.9514% and 46.1831%
Relative percent drug loaded in DC Bead LUMI over time ([4]; 15 min, single replicates): 43.0802% and 66.0616% and 55.143%
Relative percent drug loaded in DC Bead LUMI over time ([4]; 30 min, single replicates): 48.003% and 64.9413% and 48.1153%
Relative percent drug loaded in DC Bead LUMI over time ([4]; 45 min, single replicates): 42.5221% and 54.7578% and 59.077%
Relative percent drug loaded in DC Bead LUMI over time ([4]; 60 min, single replicates): 49.9393% and 67.8727% and 53.1769%
Relative percent drug loaded in DC Bead LUMI over time ([4]; 120 min, single replicates): 71.3739% and 70.6276% and 67.3547%
Relative percent drug loaded in DC Bead LUMI over time ([4]; 180 min, single replicates): 60.3259% and 72.9711% and 72.9791%
Relative percent drug loaded in DC Bead LUMI over time ([4]; 240 min, single replicates): 61.2934% and 72.504% and 74.4803%
Relative percent drug loaded in DC Bead LUMI over time ([4]; 300 min, single replicates): 61.9583% and 65.0576% and 73.7822%
Relative percent drug loaded in DC Bead LUMI over time ([4]; 360 min, single replicates): 62.1239% and 73.4051% and 73.7491%
Relative percent drug loaded in DC Bead LUMI over time ([4]; 420 min, single replicates): 57.6019% and 70.5665% and 69.0951%
Relative percent drug loaded in DC Bead LUMI over time ([4]; 480 min, single replicates): 60.233% and 70.8296% and 71.2658%
Relative percent drug loaded in DC Bead LUMI over time ([4]; 1440 min, single replicates): 61.7405% and 70.3053% and 72.3473%
Relative percent drug loaded in DC Bead LUMI over time ([4]; 2880 min, single replicates): 58.2466% and 69.7502% and 67.5798%
Relative percent drug loaded in DC Bead LUMI over time ([4]; 4320 min, single replicates): 62.5088% and 74.175% and 74.3147%
Relative percent drug loaded in DC Bead LUMI over time ([4]; 8640 min, single replicates): 62.7357% and 73.7536% and 73.1477%
loading behaviour ([4]; DC Bead LUMI): Fast loading
Relative percent drug loaded (maximum, percent of SO3− available on a molar basis) ([4]; DC Bead LUMI, mean (n = 3)): 73% and 73.34%
equivalent of drug loaded to sulfonated bead ([4]; DC Bead LUMI, mean ± SD): 0.21 ± 0.00 mM drug/ml beads
Maximum drug loaded ([4]; DC Bead LUMI, mean ± SD, n = 3, base form except Dox (salt form)): 65.97 ± 1.54 mg drug/ml beads
Maximum drug loaded (Triplicate), % ([4]; DC Bead LUMI, single replicates): 71.3739% and 74.175% and 74.4803%
Drug: sulfonate ([4]; molar ratio at maximum loading, DC Bead LUMI): 0.733
Theoretical maximum loading level based on SO3− contents ([4]; per mL DC Bead LUMI, assuming 1:1 drug to sulfonate): 89.95 mg
removal of drug from beads by repeated washing with deionized water ([5]; DC Bead LUMI): partially removed
aggregation of drug during washing / elution ([5]; deionized water and saline, microscopy): absence of aggregated
Compound: CCNCc1nc2c(N)nc3ccccc3c2n1CC(C)(C)O [GARD, gardiquimod]
release in saline from DC Bead LUMI after multiple washes in deionized water ([3]; 5 min): 13.8548 mg/mL of beads and 16.8316 mg/mL of beads and 16.696 mg/mL of beads
release in saline from DC Bead LUMI after multiple washes in deionized water ([3]; 15 min): 6.978 mg/mL of beads and 10.4756 mg/mL of beads and 7.4826 mg/mL of beads
release in saline from DC Bead LUMI after multiple washes in deionized water ([3]; 30 min): 11.5876 mg/mL of beads and 14.6655 mg/mL of beads and 10.6769 mg/mL of beads
release in saline from DC Bead LUMI after multiple washes in deionized water ([3]; 45 min): 12.1501 mg/mL of beads and 14.1614 mg/mL of beads and 16.9158 mg/mL of beads
release in saline from DC Bead LUMI after multiple washes in deionized water ([3]; 60 min): 12.3872 mg/mL of beads and 11.2006 mg/mL of beads and 10.7852 mg/mL of beads
release in saline from DC Bead LUMI after multiple washes in deionized water ([3]; 120 min): 6.495 mg/mL of beads and 18.2582 mg/mL of beads and 8.614 mg/mL of beads
release in saline from DC Bead LUMI after multiple washes in deionized water ([3]; 180 min): 13.4173 mg/mL of beads and 9.599 mg/mL of beads and 8.837 mg/mL of beads
release in saline from DC Bead LUMI after multiple washes in deionized water ([3]; 240 min): 11.2341 mg/mL of beads and 19.3333 mg/mL of beads and 19.2869 mg/mL of beads
release in saline from DC Bead LUMI after multiple washes in deionized water ([3]; 300 min): 11.4298 mg/mL of beads and 19.0264 mg/mL of beads and 20.0563 mg/mL of beads
release in saline from DC Bead LUMI after multiple washes in deionized water ([3]; 360 min): 14.8464 mg/mL of beads and 16.7671 mg/mL of beads and 17.7148 mg/mL of beads
release in saline from DC Bead LUMI after multiple washes in deionized water ([3]; 420 min): 10.7872 mg/mL of beads and 18.9583 mg/mL of beads and 16.16 mg/mL of beads
release in saline from DC Bead LUMI after multiple washes in deionized water ([3]; 480 min): 14.0597 mg/mL of beads and 15.9257 mg/mL of beads and 20.8469 mg/mL of beads
release in saline from DC Bead LUMI after multiple washes in deionized water ([3]; 1440 min): 16.384 mg/mL of beads and 22.102 mg/mL of beads and 14.1626 mg/mL of beads
release in saline from DC Bead LUMI after multiple washes in deionized water ([3]; 2880 min): 17.882 mg/mL of beads and 19.297 mg/mL of beads and 22.6822 mg/mL of beads
release in saline from DC Bead LUMI after multiple washes in deionized water ([3]; 4320 min): 17.16 mg/mL of beads and 21.3309 mg/mL of beads and 22.7224 mg/mL of beads
release in saline from DC Bead LUMI after multiple washes in deionized water ([3]; 8640 min): 16.9125 mg/mL of beads and 21.9345 mg/mL of beads and 17.7447 mg/mL of beads
